Experimental data as given in US20250381129A1, “ANTI-AGING SKIN CARE COMPOSITION” (L'OREAL, priority 2024, published 2025).

Tests used:
Details in all cases: topical, 5 consecutive days, HPR 0.01%, LA 3%, Eperuline 1% or 3%
IL-23 = assay: Quantification of secreted IL-23 in culture supernatant of CSC-stimulated human ex-vivo skin (ProcartaPlex/Luminex)
Description: (§1) Human ex-vivo skin was cultured with or without CSC and topically treated with either HPR, HPR-LA, HPR-Eperuline and HPR-LA-Eperuline for 5 days consecutive days (See FIG. 2B; See Table 4 for concentrations).
(§2) Skin tissues were divided into groups of three and placed in the 24-well transwell plates, […] (Cell stimulation cocktail 500×(50-930-5)) was diluted to a 2× concentration in culture media and 650 uL was added to the well on the first day. Topical treatments were undertaken daily by pipetting 5 uL of treatments onto the tissue and using a Q-tip, spreading treatments across the tissue and left to absorb at room temperature for 30 minutes. Base media without stimulants served as the control group. Tissues were replenished with fresh media with the stimulant on day 1 and 3. On days 1, 3 and 5, supernatant from the culture was collected and aliquoted, and the tissues were bisected and fixed in 10% neutral buffered formalin (Fisher Scientific 22-126-347) for 3 h and then switched to 70% ethanol for storage until histology.
(§3) Tissue culture supernatant was collected at the end of the cultures to evaluate the secretion of several cytokines, chemokines, and growth factors. […]
(§4) Data were assessed using a two-way ANOVA with multiple comparison test. […]

IL-1A = assay: Quantification of secreted IL-1A in culture supernatant of CSC-stimulated human ex-vivo skin (ProcartaPlex/Luminex)
Description: as §1, §2, §3, §4

[1] = tested on: CSC-stimulated human ex-vivo skin; assay: H&E histological analysis of CSC-stimulated human ex-vivo skin
Description: as §1
Fresh human ex-vivo skin was obtained through donor informed consent following abdominoplasty procedures. The tissues were obtained through BioIVT (Westbury, NY, USA) following an approved IRB protocol and shipped to a BSC level 2 research laboratory within 24 h after the procedure where the experiments took place. All experiments were performed in accordance with relevant guidelines and regulations. Donors included a person, person and person. Ex vivo tissues were prepared by excising the subcutaneous fat followed by punch biopsies with disposable 12 mm Skin Biopsy Punch (Fisher Scientific, NC9253254) and placed in 24-well transwell plates with permeable polyester membrane inserts (Fisher Scientific, 07-200-161). At least three biopsies were used for each condition.
Skin tissues were divided into groups of three and placed in the 24-well transwell plates, […] (Cell stimulation cocktail 500×(50-930-5)) was diluted to a 2× concentration in culture media and 650 uL was added to the well on the first day. […]

CC1=C(/C=C/C(C)=C/C=C/C(C)=C/C(=O)OCC(=O)C(C)(C)C)C(C)(C)CCC1 [HPR, hydroxypinacolone retinoate]
secreted IL-23 (IL-23): significant increase | secreted IL-1A (IL-1A): significant increase | histological signs of inflammation (epidermal spongiosis, immune infiltration) [1]: exacerbated
